Blank lines part the entries; values can stand above or below the compound they belong to. Where a SMILES comes first, the peptide text is derived from it. Bridges are numbered along the chain shown (N, C = ends). [ ]: non-standard residue; d: D form. S5 = C=CCCC[C@](C)(N)C(=O)O
Tests used:
A549 cells [1] = assay: cells; assay type: cell-based, human; conditions: Homo sapiens, A549; 48 hours, crystal violet, at least two independent experiments (n=4/experiment) ± SD, Grafit; read-out: IC50 A549 cell proliferation
Protocol: Non-small cell lung cancer A549, H358 and PC9 cell lines used in this study. Cell culture media, serum and antibiotics were purchased from Life Technologies. All cell lines were cultured in RPMI + Glutamax supplemented with 10% FCS, 100 units/mL penicillin (G sodium salt) and 100 µg/mL streptomycin at 37 °C in an atmosphere containing 5% CO2. […] Stock solutions of drugs were prepared in DMSO and freshly diluted in PBS to the desired concentration prior to use, then added onto unsynchronized cells cultured to subconfluency (60-70%), which were then further incubated for 24, 48 or 72 h. Cell proliferation was determined by crystal violet assay following treatment with drugs. Cells were washed with PBS, fixed with 3.7% formaldehyde for 10 min and then incubated with 0.1% crystal violet dye for 30 min. After rinsing, crystals were dissolved in 10% acetic acid and viability was determined by measuring absorbance at 595 nm.

[2] = system: H358 orthotopic lung tumours; assay: Antitumour efficacy in mice with orthotopic lung tumour; assay type: in vivo
Protocol: Luciferase-modified human H358 NSCLC cells (H358-Luc cells) were suspended in medium with 10 mM EDTA and 5 mg/mL Matrigel (BD Biosciences) at 5.10^6 cells/50 μL. Six-week-old female NMRI nude mice (Janvier, Le Genest, Saint Isle, France) were anesthetized (isoflurane/air 4% for induction and 1.5% thereafter), and cells were inoculated in the lungs via the airways as previously described, [48]. Non-invasive in vivo bioluminescence imaging (IVIS Kinetic, Perkin-Elmer) was used 10 min after the intraperitoneal injection of 10 mg/mL D-Luciferin (Promega, Charbonnières, France) to monitor the quality of the implantation and to follow orthotopic growth, [48]. […] Five weeks after the inoculation of H358-Luc cells, when bioluminescent orthotopic tumours were detected, nude mice were randomly divided into 6 groups. […] To determine proliferative index, total and Ki67 positive tumour epithelial cells were scored on two to eight fields per mouse in three or four mice per group, and reported as percentage of Ki67 positive cells. […] Total and p-RB positive tumour epithelial cells were scored on two to twenty-nine fields per mouse in three or four mice per group, and reported as percentage of p-RB positive cells in each field and each treatment group.

A549 cells [3] = assay: Flow cytometry cell cycle analysis; assay type: cell-based, human; conditions: 24 h, Abemaciclib 0.5 and 5 µM, Ctrl stapled peptide 10 µM, P2short 1 or 10 µM
Protocol: Cells were trypsinized and fixed in 70% ice cold ethanol, washed in PBS and resuspended in PBS-1% BSA-50 mM citrate with 25 µg/mL RNase A for 15 min at 37 °C, supplemented with 25 µg/mL of propidium iodide for 30 min at room temperature. For each condition 20000 events were analysed by Gallios (Beckman Coulter) and data analysis was performed using FlowJo Software.

[4] = Circular dichroism, determination of alpha helical content; assay type: physicochemical
Protocol: CD experiments were carried out using a Jasco J815 spectropolarimeter. Spectra were recorded with 100 μM of peptides dissolved in phosphate buffer 50 mM, pH 7, using a 1 mm pathlength CD cuvette at 20 °C, over a wavelength range of 190-260 nm. Continuous scanning mode was used, with a response of 1.0 s with 0.1 nm steps and a bandwidth of 2 nm. The signal to noise ratio was improved by acquiring each spectrum over an average of two scans. Baseline was corrected by subtracting the background from the sample spectrum.
Alpha helical content was determined using the following equation: % Helix = ([θ])obs * 100)/(-39500 * (1-2.57/n), where ([θ])obs is the mean residue ellipticity at 222 nm and n the number of peptide bonds.

GST-cyclin D1 = target: T1, GST-cyclin D1 (Homo sapiens, UniProt P24385); assay: Fluorescence titration of TP2-Rho-labelled peptides with GST-cyclin D1; assay type: binding; conditions: 200 nM TP2-Rho labelled peptide titrated with GST-cyclin D1, PBS, 30 °C, average of n = 3 to 5 ± SD
T1 construct: made in house; host or cells: E. coli
Protocol: (§1) TP2-Rho-labelled peptides: peptides were labelled on a unique cysteine residue with a five-fold molar excess of TP2-Rho-maleimide overnight, and then purified from free dye on NAP-5 columns (GE Healthcare), as described previously.
Recombinant GST-CDK4 and GST-cyclin D1 were expressed in E. coli by IPTG induction and purified by FPLC chromatography as described previously.
(§2) Fluorescence titration assays were performed in 96-well plates in a thermostated chamber (Clariostar spectrofluorimeter, BMG) at 30 °C in 200 μL phosphate buffer saline using 200 nM fluorescently-labelled peptides or proteins. The fluorescence emission intensity of TP2-Rho-labelled peptides was recorded at 614 nm following excitation at 510 nm. The fluorescence emission intensity of mant-ATP was measured at […]. Data analysis was performed using the GraFit Software (Erathicus Ltd) and curve fitting was performed using a quadratic equation, as described previously. Experiments were performed in triplicate, and Kd values represent the average calculated for n = 3 to 5 experiments, together with standard deviation.

[5] = target: C4D peptide derived from the alpha 5 helix of cyclin D1 (Homo sapiens, UniProt P24385); assay: Fluorescence titration of TP2-Rho-labelled C4D peptide with CDK4 C helix-derived peptides; assay type: binding; conditions: 200 nM TP2-Rho labelled C4D peptide, PBS, 30 °C, average of n = 3 to 5 ± SD
Protocol: as §1, §2

circular dichroism = conditions: 50 mM phosphate buffer; pH 7; 20 °C; 100 uM
[6] = Solubility of stapled peptides; assay type: physicochemical

Sequence of C4D peptide derived from the alpha 5 helix of cyclin D1 (P24385 whole entry): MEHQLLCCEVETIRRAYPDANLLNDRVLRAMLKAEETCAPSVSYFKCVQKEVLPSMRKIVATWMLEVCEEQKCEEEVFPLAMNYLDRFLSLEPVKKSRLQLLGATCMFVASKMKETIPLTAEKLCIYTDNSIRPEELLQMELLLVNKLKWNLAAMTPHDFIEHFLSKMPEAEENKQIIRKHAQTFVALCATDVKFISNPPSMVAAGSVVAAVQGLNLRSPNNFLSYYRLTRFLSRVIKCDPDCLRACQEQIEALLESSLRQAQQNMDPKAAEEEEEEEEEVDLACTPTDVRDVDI
T1 sequence (P24385 whole entry): as above

IC50 (A549 cells [1]): 2720 ± 2210 nM
SMILES: CCN1CCN(Cc2ccc(Nc3ncc(F)c(-c4cc(F)c5nc(C)n(C(C)C)c5c4)n3)nc2)CC1 [Abemaciclib]
effect on H358 orthotopic tumour growth, single agent ([2]; bioluminescence, 3 weeks, Abemaciclib 10 mg/kg daily oral, P2shortA 0.45 mg/kg intrapulmonary 2 times a week, n=10): slightly reduced tumour growth
Ki67 or pRb levels in tumours, single agent ([2]; intrapulmonary P2shortA or Abemaciclib alone, immunohistochemistry): did not reduce Ki67 or pRb levels
effect on the cell cycle (proportion of cells in G1) (A549 cells [3]): significantly increased the proportion of cells in G1

% helix (alpha helical content) ([4]; CD, 100 μM peptide in phosphate buffer 50 mM, pH 7, 20 °C, from mean residue ellipticity at 222 nm): 7%
helicity upon addition of 25% TFE ([4]; CD, phosphate buffer with 25% TFE): 46%
conformation in solution (CD) ([4]; phosphate buffer): disordered
Kd (GST-cyclin D1): 43 ± 24 nM
Kd [5]: 83 ± 45 nM
SMILES: CC[C@H](C)[C@H](NC(=O)[C@@H]1CCCN1C(=O)[C@@H](N)CS)C(=O)N[C@@H](CO)C(=O)N[C@H](C(=O)N[C@H](C(=O)N[C@@H](CCCNC(=N)N)C(=O)N[C@@H](CCC(=O)O)C(=O)N[C@H](C(=O)N[C@@H](C)C(=O)N[C@@H](CC(C)C)C(=O)N[C@@H](CC(C)C)C(=O)N[C@@H](CCCNC(=N)N)C(=O)N[C@@H](CCCNC(=N)N)C(=O)N[C@@H](CC(C)C)C(=O)N[C@@H](CCC(=O)O)C(=O)N[C@@H](C)C(=O)N[C@@H](Cc1ccccc1)C(=O)N[C@@H](CCC(=O)O)C(N)=O)C(C)C)C(C)C)[C@@H](C)O [CDK4 C peptide] (H-CPISTVREVALLRRLEAFE-NH2)
helicity (circular dichroism): 7%

solubility [6]: poorly soluble
SMILES: CC[C@H](C)[C@H](NC(=O)[C@@H]1CCCN1C(=O)[C@H](CC(C)C)NC(=O)CNC(C)=O)C(=O)N[C@@H](CO)C(=O)N[C@H](C(=O)N[C@H](C(=O)N[C@@H](CCCNC(=N)N)C(=O)N[C@@H](CCC(=O)O)C(=O)N[C@H](C(=O)N[C@@H](C)C(=O)N[C@@H](CC(C)C)C(=O)N[C@@]1(C)CCCC=CCCC[C@@](C)(C(=O)N[C@@H](C)C(=O)N[C@@H](Cc2ccccc2)C(=O)N[C@@H](CCC(=O)O)C(N)=O)NC(=O)[C@H](CC(C)C)NC(=O)[C@H](CCCNC(=N)N)NC(=O)[C@H](CCCNC(=N)N)NC1=O)C(C)C)C(C)C)[C@@H](C)O [P3] (Ac-GLPISTVREVAL[S5]RRL[S5]AFE-NH2; staple 13-17)

Reference: publication PMC7019173, “Stapled peptide targeting the CDK4/Cyclin D interface combined with Abemaciclib inhibits KRAS mutant lung cancer growth” (Theranostics, 2020)
